Experimental data reported in patent US20200148617A1, “GEMCABENE, PHARMACEUTICALLY ACCEPTABLE SALTS THEREOF, COMPOSITIONS THEREOF AND METHODS OF USE THEREFOR” (GEMPHIRE THERAPEUTICS INC., priority 2017, published 2020).

Tests used:
[1] = test system: hepatic mRNA expression in STAM™ mice; assay: Murine STAM model of NASH-HCC: hepatic gene expression by quantitative RT-PCR; type: in vivo, mouse; conditions: for TNF-α mRNA expression (relative, normalized to vehicle-treated normal group): mean±SD, vehicle STAM 3.6±1.0; for ADH-4 mRNA expression levels (relative): vehicle STAM 0.9±0.3; for CRP mRNA levels (relative): vehicle STAM 1.0±0.2; for NF-κB mRNA expression levels (relative): vehicle STAM 1.1±0.1; for MMP-2 mRNA expression levels (relative): vehicle STAM 1.9±0.7; for CCR2 mRNA expression levels (relative): vehicle STAM 3.5±1.7; for MCP-1 mRNA expression levels (relative): vehicle STAM 3.6±1.7; for Sulf-2 mRNA expression levels (relative): vehicle STAM 5.2±1.2; for MIP-1β mRNA levels (relative): vehicle STAM 5.6±2.0; for TIMP-1 mRNA expression (relative): vehicle STAM 12.9±9.0
Procedure: A study was performed to evaluate the efficacy of gemcabene calcium salt hydrate Crystal Form 1 having a PSD90 of 52 μm as measured by laser light diffraction, in treating non-alcoholic steatosis hepatitis (NASH) in the murine STAM™ model of NASH-HCC.
Briefly, two-day old neonatal C57BL/6 male mice were administered low-dose streptozotocin (STZ), and were subsequently fed a HFC diet from 4 weeks of age. In this model, the mice typically develop liver steatosis and diabetes, reaching steatohepatitis within 3 weeks, followed by cirrhosis within 8 weeks, and carcinoma within 16 weeks. In the current study, mice were administered daily oral gemcabene calcium salt hydrate Crystal Form 1 starting at week 6 of age and were sacrificed at week 9. Telmisartan (with antisteatotic, anti-inflammatory and antifibrotic effects in STAM™ mice) was used as a positive comparator. A baseline reference group was administered vehicle at day 2 of age, and from week 6 of age was vehicle-treated and chow-fed. Five STAM™ groups were streptozocin-treated at day 2 of age and fed a HFC-diet beginning with week 4 of age. These STAM™ groups were orally administered from week 6 one of the following: water-vehicle, gemcabene calcium salt hydrate Crystal Form 1 at 30, 100 and 300 mg/kg daily, or telmisartan ([…]®) 10 mg/kg daily. Telmisartan ([…]®) was purchased from Boehringer Ingelheim GmbH (Germany) and dissolved in pure water. All groups were sacrificed at week 9. Vehicle, gemcabene calcium salt hydrate Crystal Form 1, or telmisartan were administered by oral gavage once daily.
Various gene expression markers of liver metabolism were evaluated by Real-Time PCR (RT-PCR) in all mouse groups. Total RNA was extracted from liver samples using RNAiso (Takara Bio, Japan) according to the manufacturer's instructions. One μg of RNA was reverse-transcribed using a reaction mixture containing 4.4 mM MgCl2 (F. Hoffmann-La Roche, Switzerland), 40 U RNase inhibitor (Toyobo, Japan), 0.5 mM dNTP (Promega, USA), 6.28 μM random hexamer (Promega), 5× first strand buffer (Promega), 10 mM dithiothreitol (Invitrogen, USA) and 200 U MMLV-RT (Invitrogen) in a final volume of 20 μL. The reaction was carried out for 1 hour at 37° C., followed by 5 minutes at 99° C. Real-time PCR was performed using real-time PCR DICE and SYBR premix Taq (Takara Bio). To calculate the relative mRNA expression level, the expression of each gene was normalized to that of reference gene 36B4 (gene symbol: Rplp0). Information of PCR-primer sets is described in Tables 20A-20C. Statistical analyses were performed using the Bonferroni Multiple Comparison Test on GraphPad Prism 6 (GraphPad Software Inc., USA). P values <0.05 were considered statistically significant. Results are expressed as mean±SD.
In order to calculate the relative mRNA expression level, the expression of each gene was normalized to that of the reference gene 36B4 (gene symbol: Rplp0). The gene expression levels were measured by quantitative RT-PCR. Results were normalized with values for the vehicle-treated normal group. […] Gemcabene calcium salt hydrate Crystal Form 1 (PSD90=52 μm) modulated the mRNA expression of many hepatic genes that play a significant role in the liver homeostasis and injury.

[2] = 12-week placebo-controlled study of 600 mg QD in hypercholesterolemia patients on statins: safety and tolerability; type: in vivo; conditions: add-on to highest doses of background statins
Procedure: High-risk patients including some, but not all those with heterozygous familial hypercholesterolemia (HeFH) or atherosclerotic cardiovascular disease (ASCVD) on appropriate diet and stable statin therapy for at least 12 weeks and LDL-C ≥100 mg/dL (2.59 mmol/L) and triglycerides <500 mg/dL (5.65 mmol/L) were randomized into a 12-week, placebo-controlled, parallel-group, double-blind study to assess the efficacy of gemcabene calcium salt hydrate Crystal Form 1 (PSD90=52 μm) 600 mg (300-mg Tablet D×2) QD on LDL-C and other lipoproteins and hsCRP (high-sensitivity C-reactive protein). Safety and tolerability were also evaluated. The patients were stratified by high- or moderate-intensity statin therapy, with or without ezetimibe, with a target of 52 patients (26 patients on 600 mg gemcabene calcium salt hydrate Crystal Form 1 as administered by 2× Tablet D and 26 patients on placebo (“placebo”)) in each stratum. […] Mean baseline LDL-C for all patients was approximately 134 mg/dL (3.48 mmol/L) with most patients in the high-intensity statin stratum on atorvastatin and most patients in the moderate-intensity stratum on either simvastatin or atorvastatin.
33 of 54 patients (61.1%) in the Tablet D group and 24 of 51 patients (47.1%) in the placebo group who reported at least one AE during the study. The most prevalent AEs were those associated with infections. […]

In the case of `CC(C)(CCCCOCCCCC(C)(C)C(=O)[O-])C(=O)[O-].O.[Ca+2]` [6-(5-Carboxy-5-methyl-hexyloxy)-2,2-dimethylhexanoic acid calcium (gemcabene calcium salt) hydrate Crystal Form 1], the “CCR5 mRNA expression levels (relative)” value ([1]; gemcabene 100 mg/kg) is reported as 1.4±0.3, the “TNF-α mRNA expression (relative, normalized to vehicle-treated normal group)” value ([1]; gemcabene 100 mg/kg) is reported as 2.0±0.8 and the “ACC-1 mRNA expression levels (relative)” value ([1]; gemcabene 100 mg/kg, telmisartan 10 mg/kg, vehicle STAM 0.9±0.2) is reported as 0.7±0.1. For the same compound, the “ADH-4 mRNA expression levels (relative)” value ([1]; gemcabene 100 mg/kg) was 0.6±0.1, the “CRP mRNA levels (relative)” value ([1]; gemcabene 100 mg/kg) was 0.6±0.1 and the “NF-κB mRNA expression levels (relative)” value ([1]; gemcabene 100 mg/kg) was 0.9±0.1. For the same compound, the “MMP-2 mRNA expression levels (relative)” value ([1]; gemcabene 100 mg/kg) was 0.5±0.2, the “CCR2 mRNA expression levels (relative)” value ([1]; gemcabene 100 mg/kg) was 1.6±0.4 and the “MCP-1 mRNA expression levels (relative)” value ([1]; gemcabene 100 mg/kg) was 1.7±0.7. The “Sulf-2 mRNA expression levels (relative)” value ([1]; gemcabene 100 mg/kg) was 3.8±0.7, the “MIP-1β mRNA levels (relative)” value ([1]; gemcabene 100 mg/kg) was 2.3±0.9 and the “TIMP-1 mRNA expression (relative)” value ([1]; gemcabene 100 mg/kg) was 3.8±1.6. For the same compound, the “CCR5 mRNA expression levels (relative)” value ([1]; gemcabene 300 mg/kg) was 1.3±0.3, the “TNF-α mRNA expression (relative, normalized to vehicle-treated normal group)” value ([1]; gemcabene 300 mg/kg) was 1.9±0.7 and the “ADH-4 mRNA expression levels (relative)” value ([1]; gemcabene 300 mg/kg) was 0.5±0.1. For the same compound, the “CRP mRNA levels (relative)” value ([1]; gemcabene 300 mg/kg) was 0.5±0.1, the “NF-κB mRNA expression levels (relative)” value ([1]; gemcabene 300 mg/kg) was 0.8±0.1 and the “MMP-2 mRNA expression levels (relative)” value ([1]; gemcabene 300 mg/kg) was 0.9±0.2. The “CCR2 mRNA expression levels (relative)” value ([1]; gemcabene 300 mg/kg) was 1.7±0.7, the “MCP-1 mRNA expression levels (relative)” value ([1]; gemcabene 300 mg/kg) was 1.6±0.7 and the “Sulf-2 mRNA expression levels (relative)” value ([1]; gemcabene 300 mg/kg) was 3.3±0.9. For the same compound, the “MIP-1β mRNA levels (relative)” value ([1]; gemcabene 300 mg/kg) was 2.8±1.4, the “TIMP-1 mRNA expression (relative)” value ([1]; gemcabene 300 mg/kg) was 4.4±2.1 and the “muscle or liver related toxicities” value [2] was “No evidence”.
